Each block holds one molecule with its values, some of them ahead of it.
Assays:
[1] = Degradation kinetics of FOCM metabolites at storage temperatures, Arrhenius model; assay type: physicochemical; set-up: Ln (K) / Calculated Ln (K) / Calculated K: unit not given here; conditions: for Degradation constant, K: first order, days 0-42
Procedure: This will further enhance the clinical prediction ability. The stability of these plasma vitamin B and folate metabolites were studied to validate the reliability of the assay and the time-dependent effect on the concentration of the analytes in patient samples. Using freshly made samples and assessing their degradation over time, we have established an Arrhenius models that will allow the team to extrapolate the metabolite level over time.
The stability of these metabolites were assessed using accelerated stress conditions which involves determining degradation rates of analytes through monitoring changes in time of their concentration in solution at several predetermined storage temperatures and then analyzing the results in terms of the Arrhenius equation: […]
For a valid Arrhenius model to be developed, a linear plot determining the degradation rate of analyte at given storage temperatures against reciprocals of these temperatures is needed. The pre-exponential factor A, which may be obtained by extrapolating the straight line to zero value of the temperature reciprocal, appears to be affected by factors such as exposure to pollution^7 and light^8, relative humidity during the ageing, and the analytes. The activation energy, directly proportional to the slope of the straight line, represents a measure of sensitivity of the degradation rate of the studied property to temperature changes. The degradation rate of the analytes at ambient conditions can be estimated by extrapolating the Arrhenius plot for the analyte concentration to storage temperature. Combined with a kinetic equation describing changes of the concentration with time, this rate may then be used to estimate the life-expectancy of the analytes.
In order to estimate the degradation rate constant, k, at the storage temperature of the plasma samples (which is usually −80° C.), a degradation experiment was conducted for FOCM metabolites at ambient temperatures of 37° C., 25° C., 4° C. and −20° C. […] All degradation curves were assumed to be first order. All experimental samples were stored and quantified at days 0, 3, 7, 14, 21, 28 and 42 using the developed LCMS assay. The results below (for 4-pyridoxic acid) are an example of the data obtained for each of the FOCM metabolites.

[2] = Evaluation of stabilizing agents for FOCM metabolites; assay type: physicochemical; conditions: 0.5% ascorbic acid, compared with other stabilizing agents
From the text: A major challenge with the FOCM intermediates during storage and analysis is their poor stability. The metabolites may be unstable through environment exposures such as heat, light and/or oxygen, thereby posing great challenge to determine the actual concentration of these metabolites at the time of collection. These FOCM intermediates make the metabolomics-based assay a very powerful tool to a more accurate quantification. The instability of these vitamins pose a great challenge due to their poor stability in the presence of metallic ions, oxidative species and light which catalyze most of the degradation reactions. Most of the vitamin B and folate metabolites degrade due as a consequence of photooxidation reactions which becomes a challenge for assay development necessitating the provision of the most suitable conditions for storage and processing of the plasma samples in order to produce a highly sensitive and reliable assay method. In order to address the instability issues during sample processing, the analysis will be conducted on at 4° C. using black eppendorf tubes. […] Consistent metabolites extraction is achieved using protein precipitation approach followed by the supernatant evaporated to dryness under nitrogen. […]

[3] = −80 °C, extrapolated from Arrhenius model

Ln (K) ([1]; 4 °C): −4.164
Calculated K ([1]; 4 °C, Arrhenius model): 0.014
Calculated Ln (K) ([1]; 4 °C, Arrhenius model): −4.302
Degradation constant, K ([1]; 4 °C): 0.016
Ln (K) ([1]; 25 °C): −4.019
Calculated K ([1]; 25 °C, Arrhenius model): 0.019
Calculated Ln (K) ([1]; 25 °C, Arrhenius model): −3.977
Degradation constant, K ([1]; 25 °C): 0.018
Ln (K) ([1]; 37 °C): −3.841
Calculated K ([1]; 37 °C, Arrhenius model): 0.022
Calculated Ln (K) ([1]; 37 °C, Arrhenius model): −3.810
Degradation constant, K ([1]; 37 °C): 0.021
A, Arrhenius pre-exponential factor ([1]; Arrhenius plot): 1.37
Ln(A) ([1]; Arrhenius plot intercept): 0.3183
Ln (K) ([1]; −20 °C): −4.806
Calculated K ([1]; −20 °C, Arrhenius model): 0.009
Calculated Ln (K) ([1]; −20 °C, Arrhenius model): −4.741
Degradation constant, K ([1]; −20 °C): 0.008
Calculated K [1, 3]: 0.002
Calculated Ln (K) [1, 3]: −6.313
E, activation energy ([1]; −slope*R of Arrhenius plot): 10.6 KJmol^−1
Compound: Cc1ncc(CO)c(C(=O)O)c1O [4-Pyridoxic acid]

Compound: O=C1O[C@H]([C@@H](O)CO)C(O)=C1O [ascorbic acid]
Stabilization of FOCM metabolites from oxidation [2]: more effective in stabilizing the FOCM metabolites from oxidation

— US20190101539A1, “METABOLOMIC BASED BIOMARKERS FOR COLON CANCER DETECTION” (UNIVERSITY OF SOUTHERN CALIFORNIA, priority 2015, published 2019)
